Tests used:
[1] = biological target: T1, DPP-4 (Homo sapiens, UniProt P27487); assay: DPP-4 Inhibitor Screening Assay (fluorescence-based, Gly-Pro-AMC substrate); assay type: biochemical; details: mean ± SD; for inhibition at 100 µM: compound at 100 µM, triplicate; for IC50: five concentrations 10^−1 to 10^−5 µM, read-out: IC50 for DPP-4 inhibition
T1 construct: purchased Cayman Chemicals, Ann Arbor, MI, USA
Protocol: This assay kit allows DPP-4 measurement using Gly-Pro-Aminomethylcoumarin (AMC) as a fluorogenic substrate. The free AMC group is released through the cleavage of the peptide bond by DPP leading to fluorescence that can be examined using appropriate excitation and emission wavelengths. Briefly, the experiment was performed triplicate in a white flat bottom 96 well plate. Thirty microlitres of assay buffer, 10 µL of DPP-4 enzyme, 10 µL of dimethyl sulfoxide (DMSO), and 50 µL of DPP substrate were added to 100% initial activity wells. Forty microlitres of assay buffer, 10 µL of DMSO, and 50 µL of DPP substrate were added to background wells. Thirty microlitres of assay buffer, 10 µL of DPP-4 enzyme, 10 µL of sample, and 50 µL of DPP substrate were added to inhibitor wells. […] The plate was incubated for 30 min at 37 °C, and fluorescence measurements were analyzed using an excitation wavelength of 360/40 nm and an emission wavelength of 460/40 nm in a multi-mode plate reader (Synergy HTX S1LFA, BioTek Instruments, Winooski, VT, USA). All assays were performed in triplicate. The fluorescence of the background wells was subtracted from all other wells before the calculations. The per cent inhibition was determined by the following formula in equation 1:Inhibition% = [(Initial activity − Inhibitor)/Initial Activity] × 100(1)

[2] = MTT cytotoxicity assay on NIH/3T3 cells; assay type: cell-based; details: mouse, NIH/3T3 mouse embryonic fibroblast cells, 24 h incubation, 31.25-500 µM, read-out: IC50 cytotoxicity towards NIH/3T3 cell line
Protocol: NIH/3T3 mouse embryonic fibroblast (normal) cells (ATCC® CRL-1658™) were grown in RPMI 1640 medium (Sigma-Aldrich, St. Louis, MO, USA) supplemented with 2 mM L-glutamine (Gibco, Paisley, UK), 10% fetal bovine serum (Gibco, Paisley, UK) and 1% penicillin/streptomycin (Gibco, Paisley, UK) at 37 °C in a humidified incubator with a 5% CO2 atmosphere. Compounds 2a–o were dissolved in DMSO (Sigma-Aldrich, St. Louis, MO, USA) and diluted to required concentrations with a fresh medium. The control group (solvent control) was prepared with a medium containing 0.1% DMSO. […]
In order to determine IC50 concentrations of compounds 2a–o, cell viability was determined by MTT assay. […] The absorbance values were measured at 540 nm using a Cytation 3 Cell Imaging Multi-Mode Reader (BioTek, Winooski, VT, USA). Cell survival rates were expressed as the percentage of the DMSO (0.1%) solvent control and IC50 concentrations were calculated according to the analysis result.

T1 sequence (P27487 whole entry): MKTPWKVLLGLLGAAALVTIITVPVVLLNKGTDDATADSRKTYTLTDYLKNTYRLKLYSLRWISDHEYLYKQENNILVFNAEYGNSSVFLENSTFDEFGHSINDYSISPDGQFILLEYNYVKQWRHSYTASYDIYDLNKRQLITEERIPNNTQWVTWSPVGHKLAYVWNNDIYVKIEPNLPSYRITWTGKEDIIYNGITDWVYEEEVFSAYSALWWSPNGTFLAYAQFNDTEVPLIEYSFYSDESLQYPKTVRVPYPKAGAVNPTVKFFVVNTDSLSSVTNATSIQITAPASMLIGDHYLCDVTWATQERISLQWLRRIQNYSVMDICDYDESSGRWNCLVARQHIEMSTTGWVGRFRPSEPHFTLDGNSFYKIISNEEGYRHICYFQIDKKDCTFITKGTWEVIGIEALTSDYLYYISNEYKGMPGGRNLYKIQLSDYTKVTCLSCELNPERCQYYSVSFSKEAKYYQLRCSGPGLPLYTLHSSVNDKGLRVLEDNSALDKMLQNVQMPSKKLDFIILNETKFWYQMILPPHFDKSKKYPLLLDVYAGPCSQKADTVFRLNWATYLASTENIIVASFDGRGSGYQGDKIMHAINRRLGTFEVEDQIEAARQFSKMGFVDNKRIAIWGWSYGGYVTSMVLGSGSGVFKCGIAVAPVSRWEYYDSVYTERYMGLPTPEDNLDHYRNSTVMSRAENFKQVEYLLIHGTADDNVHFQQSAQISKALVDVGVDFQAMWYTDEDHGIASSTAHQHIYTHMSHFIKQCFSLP

| SMILES | inhibition at 100 µM [1] | IC50 [1] | IC50 at 24 h [2] |
| --- | --- | --- | --- |
| S=C(N/N=C/c1ccccc1)Nc1ccc(-n2cccn2)cc1 [Compound 2a, [4-(1H-Pyrazol-1-yl)phenyl]-1-(benzylidene)thiosemicarbazide] | 20.7 ± 1.82% | – | – |
| Cc1ccc(/C=N/NC(=S)Nc2ccc(-n3cccn3)cc2)cc1 [Compound 2h, [4-(1H-Pyrazol-1-yl)phenyl]-1-(4-methylbenzylidene)thiosemicarbazide] | 53.2 ± 3.1% | – | – |
| N#Cc1ccc(/C=N/NC(=S)Nc2ccc(-n3cccn3)cc2)cc1 [Compound 2c, [4-(1H-Pyrazol-1-yl)phenyl]-1-(4-cyanobenzylidene)thiosemicarbazide] | 28 ± 1.63% | – | – |
| S=C(NN=Cc1ccc(Br)cc1)Nc1ccc(-n2cccn2)cc1 [Compound 2f, 4-[4-(1H-pyrazol-1-yl)phenyl]-1-(4-bromobenzylidene)thiosemicarbazide] | – | 1.27 ± 0.264 nM | > 500000 nM |
| CSc1ccc(/C=N/NC(=S)Nc2ccc(-n3cccn3)cc2)cc1 [Compound 2k, [4-(1H-Pyrazol-1-yl)phenyl]-1-(4-methylthiobenzylidene)thiosemicarbazide] | > 60% | 22.7 ± 0.301 nM | – |
| Fc1ccc(/C=N/NC(=S)Nc2ccc(-n3cccn3)cc2)cc1 [Compound 2d, [4-(1H-Pyrazol-1-yl)phenyl]-1-(4-fluorobenzylidene)thiosemicarbazide] | 27.3 ± 2.03% | – | – |
| CC(C)c1ccc(/C=N/NC(=S)Nc2ccc(-n3cccn3)cc2)cc1 [Compound 2m, [4-(1H-Pyrazol-1-yl)phenyl]-1-(4-isopropylbenzylidene)thiosemicarbazide] | 47.4 ± 1.29% | – | – |
| FC(F)(F)c1ccc(/C=N/NC(=S)Nc2ccc(-n3cccn3)cc2)cc1 [Compound 2g, [4-(1H-Pyrazol-1-yl)phenyl]-1-(4-trifluoromethylbenzylidene)thiosemicarbazide] | > 60% | 4.78 ± 0.296 nM | – |

The next lines start with results.

| inhibition at 100 µM [1] | IC50 [1] | SMILES | IC50 at 24 h [2] |
| --- | --- | --- | --- |
| 28.6 ± 1.76% | – | CC(C)(C)c1ccc(/C=N/NC(=S)Nc2ccc(-n3cccn3)cc2)cc1 [Compound 2n, [4-(1H-Pyrazol-1-yl)phenyl]-1-(4-tert-butylbenzylidene)thiosemicarbazide] | – |
| > 60% | 18.1 ± 0.311 nM | S=C(N/N=C/c1ccc(-c2ccccc2)cc1)Nc1ccc(-n2cccn2)cc1 [Compound 2o, [4-(1H-Pyrazol-1-yl)phenyl]-1-(4-phenylbenzylidene)thiosemicarbazide] | – |
| 38.4 ± 2.14% | – | S=C(N/N=C/c1ccc(Cl)cc1)Nc1ccc(-n2cccn2)cc1 [Compound 2e, [4-(1H-Pyrazol-1-yl)phenyl]-1-(4-chlorobenzylidene)thiosemicarbazide] | – |
| > 60% | 43.31 ± 0.372 nM | COc1ccc(/C=N/NC(=S)Nc2ccc(-n3cccn3)cc2)cc1 [Compound 2i, [4-(1H-Pyrazol-1-yl)phenyl]-1-(4-methoxybenzylidene)thiosemicarbazide] | – |
| 35.5 ± 1.75% | – | O=[N+]([O-])c1ccc(/C=N/NC(=S)Nc2ccc(-n3cccn3)cc2)cc1 [Compound 2b, [4-(1H-Pyrazol-1-yl)phenyl]-1-(4-nitrobenzylidene)thiosemicarbazide] | – |
| 59.8 ± 1.13% | – | CS(=O)(=O)c1ccc(/C=N/NC(=S)Nc2ccc(-n3cccn3)cc2)cc1 [Compound 2j, [4-(1H-Pyrazol-1-yl)phenyl]-1-(4-methylsulfonylbenzylidene)thiosemicarbazide] | – |
| 57.3 ± 1.04% | – | CN(C)c1ccc(/C=N/NC(=S)Nc2ccc(-n3cccn3)cc2)cc1 [Compound 2l, [4-(1H-Pyrazol-1-yl)phenyl]-1-(4-dimethylaminobenzylidene)thiosemicarbazide] | – |
